Reference: patent US20060223889A1 (priority 2003, published 2006)

Assays:
physchem = settings: pH 7, water
[1] = Stability in aqueous solution; type: physicochemical

With `CS(=O)(=O)c1ccc([C@@H](O)[C@@H](CF)NC(=O)C(Cl)Cl)cc1` [Florfenicol, D-(threo)-1-p-methylsulfonyl phenyl-2-dichloroacetamido-3-fluoro-1-propanol] the solubility (physchem) was at most 1300 µg/mL and the “hydrolysis when dissolved in water” value [1] was “readily hydrolyses”.
